What all share (format): biochemical
In test [1] the target is T1, wild type HIV-1 protease (Q7K) (Human immunodeficiency virus type 1 group M subtype B, UniProt P04585, Q495K).
T1 construct: Wide type HIV-1 protease (Q7K)
Put plainly: FRET HIV-1 protease inhibition assay, wild type. The note with it: for inhibitory activity against wild type HIV-1 protease (in words): qualitative statement; for fold higher Ki than the corresponding inhibitor with isobutyl group at P1': cyclopropylmethyl at P1' vs isobutyl analog, wild type; for Ki: wild type HIV-1 protease (Q7K), FRET, in triplicate, read-out: Ki. How it is done:
Biological Evaluation of Selected Compounds of the Invention. HIV protease inhibitor activities were determined by fluorescence resonance energy transfer (FRET) method. […] Inhibitor binding dissociation constant (Ki value) was obtained by nonlinear regression fitting to the plot of initial velocity as a function of inhibitor concentration based on Morrison equation.
(§1) The energy transfer donor (EDANS) and acceptor (DABCYL) were labeled at its two ends respectively to perform FRET. Fluorescence measurements were carried out on PTI fluorescence spectrophotometer (Photon Technology International) at 30° C. Excitation and emission wavelengths were set at 340 nm and 490 nm, respectively. Each reaction was recorded for about 10 min. Wide type HIV-1 protease (Q7K) and its MDR mutants M1 (L10I, G48V, I54V, L63P, V82A), M2 (D30N, L63P, N88D), and M3 (L10I, L63P, A71V, G73S, I84V, L90M) were desalted through PD-10 columns (Amersham Biosciences). Sodium Acetate (20 mM, pH 5) was used as elution buffer. Apparent protease concentrations were around 50 nM estimated by UV spectrophotometer (Shimadzu) at 280 nm. All inhibitors were dissolved in DMSO and diluted to appropriate concentrations. Protease (2 μL) and inhibitor (2 μL) or DMSO were mixed and incubated for 20-30 min at room temperature before initialing substrate cleavage reaction. Throughout this work, 150 μL of 1 μM substrate was used. Substrate buffer is composite of 0.1 M sodium acetate, 1 M sodium chloride, 1 mM ethylenediaminetetraacetic acid (EDTA), 1 mM dithiothreitol (DTT), 2% dimethylsulfoxide (DMSO) and 1 mg/mL bovine serum albumin (BSA) with an adjusted pH 4.7. Inhibitor binding dissociation constant (Ki) was obtained by nonlinear regression fitting (GraFit 5, Erithacus software) to the plot of initial velocity as a function of inhibitor concentrations based on Morrison equation.

The target of test [2] is HIV-1 protease MDR mutant M1 (L10I, G48V, I54V, L63P, V82A) (Human immunodeficiency virus type 1 group M subtype B, UniProt P04585, G536V/I542V/L498I/L551P/Q495K/V570A). The note with it: qualitative statement.
Excerpt: (§2) The mutant variants were selected by examining the Stanford HIV-1 Drug Resistance Database (http://hivdb.stanford.edu) of HIV-1 infected-patient sequences of viral isolates. […] (Wu, T. D. et al. J. Virol. 2003, 77, 4836-4847.) These MDR mutant variants are L10I, G48V, I54V, L63P, V82A (M1), D30N, L63P, N88D (M2), and L10I, L63P, A71V, G73S, I84V, L90M (M3).
as §1

Test [3] deals with HIV-1 protease MDR mutant M2 (D30N, L63P, N88D) (Human immunodeficiency virus type 1 group M subtype B, UniProt P04585, D518N/L551P/N576D/Q495K). The note with it: qualitative statement.
Excerpt: as §2, §1

In test [4] the target is HIV-1 protease MDR mutant M3 (L10I, L63P, A71V, G73S, I84V, L90M) (Human immunodeficiency virus type 1 group M subtype B, UniProt P04585, A559V/G561S/I572V/L498I/L551P/L578M/Q495K). Conditions: qualitative statement.
Excerpt: as §2, §1

Experimental findings from patent US20110178092A1, “HIV-1 Protease Inhibitors” (priority 2005, published 2011) are described below.

Broadly, the Ki is the dissociation constant of the complex between target and ligand, obtained from inhibition or displacement.

In the case of `COc1cccc(S(=O)(=O)N(CC(C)C)C[C@@H](O)[C@H](Cc2ccccc2)NC(=O)[C@@H]2CN(c3ccc(C(C)=O)cc3)C(=O)O2)c1` [29f, (5S)-3-(4-Acetylphenyl)-N-[(1S,2R)-1-benzyl-2-hydroxy-3-[isobutyl[(3-methoxyphenyl)-sulfonyl]amino]propyl]-2-oxo-oxazolidine-S-carboxamide], in test [1], the “inhibitory activity against wild type HIV-1 protease (in words)” value is “significant loss of protease inhibitory activity”.
With `COc1cccc(S(=O)(=O)N(CC2CC2)C[C@@H](O)[C@H](Cc2ccccc2)NC(=O)[C@@H]2CN(c3cccc(F)c3)C(=O)O2)c1` [36b, (5S)—N-[(1S,2R)-1-Benzyl-3-[(cyclopropylmethyl)[(3-methoxyphenyl)sulfonyl]amino]-2-hydroxypropyl]-3-(3-fluorophenyl)-2-oxo-oxazolidine-S-carboxamide], in test [1], the “fold higher Ki than the corresponding inhibitor with isobutyl group at P1'” value was “about 3 fold” and the Ki came out at 0.257 nM.
For `COc1cccc(S(=O)(=O)N(CC2CC2)C[C@@H](O)[C@H](Cc2ccccc2)NC(=O)[C@@H]2CN(c3ccc(F)c(F)c3)C(=O)O2)c1` [36c, (5S)—N-[(1S,2R)-1-Benzyl-3-[(cyclopropylmethyl)[(3-methoxyphenyl)sulfonyl]amino]-2-hydroxypropyl]-3-(3,4-difluorophenyl)-2-oxo-oxazolidine-S-carboxamide], in that order: around 9 fold and 0.58 nM.
The matching figures for `COc1cccc(S(=O)(=O)N(CC2CC2)C[C@@H](O)[C@H](Cc2ccccc2)NC(=O)[C@@H]2CN(c3ccc(C(C)=O)cc3)C(=O)O2)c1` [36f, (5S)-3-(4-Acetylphenyl)-N-[(1S,2R)-1-Benzyl-3-[(cyclopropylmethyl)[(3-methoxy-phenyl)sulfonyl]amino]-2-hydroxypropyl]-2-oxo-oxazolidine-S-carboxamide]: around 200 fold and 0.08 nM.
For `Cc1cccc(C)c1OCC(=O)N[C@@H](Cc1ccccc1)[C@@H](O)C[C@H](Cc1ccccc1)NC(=O)[C@H](C(C)C)N1CCCNC1=O` [LPV, lopinavir], in test [2], the “activity against M1 mutant relative to wild type (in words)” value is “significantly loses activity”. In addition, the “activity against M2 mutant relative to wild type (in words)” value in test [3] is “retains high affinity”. For the same compound, the “activity against M3 mutant relative to wild type (in words)” value in test [4] is reported as “significantly loses activity”.
On to `CC(C)CN(C[C@@H](O)[C@H](Cc1ccccc1)NC(=O)O[C@H]1CCOC1)S(=O)(=O)c1ccc(N)cc1` [amprenavir, reference compound], for which the “inhibitory activity against wild type HIV-1 protease (in words)” value in test [1] is “Ki value for wild type is also relatively high”.
